Source: patent publication US6313177A, “D-mannitol derivatives as HIV aspartyl protease inhibitors” (Pharmacor Inc., priority 1999, dated 2001)
Where two headings read alike, the source gives them in different places.

What was measured:
[1] = target: T1, recombinant HIV-1 protease (Human immunodeficiency virus type 1 group M subtype B, UniProt P04585); assay: Fluorometric (FRET) enzymatic assay for the inhibition constant (Ki) against the HIV protease; assay type: biochemical
T1 construct: recombinant HIV-1 protease; purchased Bachem Bioscience
Source text: Enzymatic Assay for Determining the Inhibition Constant (Ki) of Synthetic Compounds Prepared Against the HIV Protease
This is a fluorometric assay based on the cleavage by protease of a substrate carrying a donor group (EDANS, excitation at 340 nm and emission at 490 nm) and an acceptor group (DABCYL) on each side of the cleavage site, interacting together through fluorescence resonance energy transfer (FRET). Cleavage of the substrate by protease stops energy exchange between the two groups, resulting in a time-dependent increase in fluorescence intensity that is linearly related to the extent of substrate hydrolysis.
The enzymatic assay is done at 30° C. in a spectrophotometer microcuvet, in a total volume of 400 μL. The apparatus used for readings is a UV-visible Cary 1 spectrophotometer made by Varian. The reaction is run first in the absence of protease inhibitors for 2 min, using 355 μL of buffer at pH 4.7 (sodium acetate 100 mM, NaCl 1 M, EDTA 1 mM, DTT 1 mM, dimethylsulfoxide 10%, and BSA 1 mg/mL), 40 μL of substrate H-2930 from Molecular Probes (final concentration 10 μM) and 5 μL of recombinant HIV-1 protease (final concentration 18.3 nM) purchased from Bachem Bioscience. Fluorescence readings at […] are taken continuously during the reaction, allowing determination of the enzyme's initial velocity (v0). At the end of the 2 min incubation, the potential inhibitor at a defined concentration in a volume of 2 μL is added to the reaction, and fluorescence readings are taken for another 2 min, allowing determination of enzyme velocity (vi) in the presence of the inhibitory compound. Several concentrations of the putative inhibitors are tested in the assay. After calculation of vo and vi, the inhibition constant (Ki) of the compound is determined using the equation of Henderson: [formula]
and [I]=inhibitor concentration, [S ]=substrate concentration, Km=Michaelis-Menten constant, Kiapp =apparent Ki
Note that the Michaelis-Menten constant of HIV protease is determined by running the assay without inhibitors, using several concentrations of substrate, and plotting the results as a Cornish-Bowden graph with the ratio substrate concentration/velocity as the ordinate and substrate concentration as the abscissa.

[2] = Cytotoxicity (MTT assay / trypan blue exclusion test); assay type: cell-based; settings: 7 or 10 days, 37° C., measure (IC50/CC50) not stated
Protocol: Two assays were performed to evaluate the potentiel toxicity of the compounds in infected cells:
1) Briefly, cells were grown in 96-well microtiter plates at 37° C. in complete culture medium in the presence of the compound to test. Control cells grown in the absence of the compound received the same amount of solvent used to dissolve the inhibitor (in this case, dimethylsulfoxide at a final concentration of 0.1 to 0.3%). After 7 or 10 days, MTT was added to the cultures for 4 hours at 37° C. as described in the literature (Schwartz et al., AIDS Res. Hum. Retrov. 4: 441-448, 1988; Mosmaun, J. Immunol. Meth., 65: 55-63, 1983) and the changes in absorbance associated with metabolism of MTT by viable cells was monitored with an ELISA microplate reader at a test wavelength of 540 nm.
2) The cells were grown as described above in 24-well microplates or 25-cm tissue culture flasks in the presence or absence of the tested compounds, and the cell viability after 7 or 10 days was determined by the trypan blue exclusion test, using a hemacytometer and a microscope at 100× magnification.

[3] = Table 1, benzylated D-mannitol derivatives, pH 4.7, 30° C., substrate 10 μM, protease 18.3 nM
[4] = Table 2, tetra-substituted D-mannitol derivatives, pH 4.7, 30° C., substrate 10 μM, protease 18.3 nM
[5] = Table 3, di- and tri-substituted D-mannitol derivatives, pH 4.7, 30° C., substrate 10 μM, protease 18.3 nM

Row | Structure (SMILES) | Ki [1, 4] [µM] | other results
1 | O[C@@H]([C@H](O)[C@@H](COCc1ccccc1)OCc1ccccc1)[C@@H](COCc1ccccc1)OCc1ccccc1 [Compound 1, 1,2,5,6-tetra-O-benzyl-D-mannitol] |  | Ki [1]: 2 µM; CC50 [2]: 15 µM
2 | O[C@@H]([C@H](O)[C@@H](COCc1ccc(OCc2ccccc2)cc1)OCc1ccc(F)cc1)[C@@H](COCc1ccc(OCc2ccccc2)cc1)OCc1ccc(F)cc1 [Compound 58, 1,6-di-O-(4-benzyloxybenzyl)-2,5-di-O-(4-fluorobenzyl)-D-mannitol] |  | Ki [1, 3]: 5 µM
3 | COC(=O)c1ccc(CO[C@H](COCc2ccccc2)[C@@H](O)[C@H](O)[C@@H](COCc2ccccc2)OCc2ccc(C(=O)O)cc2)cc1 [Compound 59, 1,6-di-O-benzyl-2-O-(4-carboxybenzyl)-5-O-(4-carbomethoxybenzyl)-D-mannitol] |  | Ki [1, 3]: 1.4 µM
4 | N#Cc1ccc(CO[C@H](COCc2ccccc2)[C@@H](O)[C@H](O)[C@@H](COCc2ccccc2)OCc2ccc(C(N)=O)cc2)cc1 [Compound 60, 1,6-di-O-benzyl-2-O-(4-cyanobenzyl)-5-O-(4-carboxamidobenzyl)-D-mannitol] |  | Ki [1, 3]: 13 µM
5 | O=[N+]([O-])c1ccc(CO[C@H](COCc2ccccc2)[C@@H](O)[C@H](O)[C@@H](COCc2ccccc2)OCc2ccccc2)cc1 [Compound 61] |  | Ki [1, 3]: 23 µM
6 | O[C@@H]([C@H](O)[C@@H](COCc1ccccc1F)OCc1ccc(F)cc1)[C@@H](COCc1ccccc1F)OCc1ccccc1 [Compound 62, 1,6-di-O-(2-fluorobenzyl)-2-O-benzyl-5-O-(4-fluorobenzyl)-D-mannitol] |  | Ki [1, 3]: 0.22 µM
7 | O[C@@H]([C@H](O)[C@@H](COCc1ccccc1F)OCc1ccc(F)cc1)[C@@H](COCc1ccccc1)OCc1ccc(F)cc1 [Compound 63, 1-O-benzyl-6-O-(2-fluorobenzyl)-2,5-di-O-(4-fluorobenzyl)-D-mannitol] |  | Ki [1, 3]: 0.89 µM
8 | Oc1ccc(COC[C@@H](OCc2ccc(F)cc2)[C@@H](O)[C@H](O)[C@@H](COCc2ccc(OCc3ccccc3)cc2)OCc2ccc(F)cc2)cc1 [Compound 76, 1-O-(4-hydroxybenzyl)-6-O-(4-benzyloxybenzyl)-2,5-di-O-(4-fluorobenzyl)-D-mannitol] |  | Ki [1, 3]: 0.9 µM
9 | C=CCOC[C@@H](OCC=C)[C@@H](O)[C@H](O)[C@@H](COCC=C)OCC=C [Compound 78, 1,2,5,6-tetra-O-allyl-D-mannitol] | 190 | 
10 | O[C@@H]([C@H](O)[C@@H](COCC1CC1)OCC1CC1)[C@@H](COCC1CC1)OCC1CC1 [Compound 79, 1,2,5,6-tetra-O-cyclopropylmethyl-D-mannitol] | 21 | 
11 | O[C@@H]([C@H](O)[C@@H](COCc1ccccc1)OCc1ccc2ccccc2c1)[C@@H](COCc1ccccc1)OCc1ccc2ccccc2c1 [Compound 80, 1,6-di-O-benzyl-2,5-di-O-(2-naphthylmethyl)-D-mannitol] | > 1.25 | 
12 | C=CCO[C@H](COCc1ccccc1)[C@@H](O)[C@H](O)[C@@H](COCc1ccccc1)OCC=C [Compound 82, 1,6-di-O-benzyl-2,5-di-O-allyl-D-mannitol] | 11 | 
13 | O[C@@H]([C@H](O)[C@@H](COCc1ccccc1)OCC1CC1)[C@@H](COCc1ccccc1)OCC1CC1 [Compound 83, 1,6-di-O-benzyl-2,5-di-O-cyclopropylmethyl-D-mannitol] | 9 | 
14 | O[C@@H]([C@H](O)[C@@H](COCc1ccccc1)OCC=Cc1ccccc1)[C@@H](COCc1ccccc1)OCC=Cc1ccccc1 [Compound 84, 1,6-di-O-benzyl, 2,5-di-O-cinnamyl-D-mannitol] | > 1 | 
15 | O[C@@H]([C@H](O)[C@@H](COCc1ccccc1)OCc1ccncc1)[C@@H](COCc1ccccc1)OCc1ccncc1 [Compound 86, 1,6-di-O-benzyl-2,5-di-O-(4-pyridylmethyl)-D-mannitol] | > 50 | 
16 | O[C@@H]([C@H](O)[C@@H](COCc1ccccc1)OCc1ccccn1)[C@@H](COCc1ccccc1)OCc1ccccn1 [Compound 88, 1,6-di-O-benzyl-2,5-di-O-(2-pyridylmethyl)-D-mannitol] | 28 | 
17 | O[C@@H]([C@H](O)[C@@H](COCC1CC1)OCc1ccccc1)[C@@H](COCC1CC1)OCc1ccccc1 [Compound 89, 1,6-di-O-cyclopropylmethyl-2,5-di-O-dibenzyl-D-mannitol] | 16 | 
18 | C=CCOC[C@@H](OCc1ccccc1)[C@@H](O)[C@H](O)[C@@H](COCC=C)OCc1ccccc1 [Compound 90, 1,6-di-O-allyl-2,5-di-O-benzyl-D-mannitol] | 12 | 
19 | O[C@@H]([C@H](O)[C@@H](COCc1cccs1)OCc1ccc(F)cc1)[C@@H](COCc1cccs1)OCc1ccc(F)cc1 [Compound 93, 1,6-di-O-(2-thienylmethyl)-2,5-di-O-(4-fluorophenylmethyl)-D-mannitol] | 0.4 | 
20 | O[C@@H]([C@H](O)[C@@H](COCC=Cc1ccccc1)OCc1ccccc1)[C@@H](COCC=Cc1ccccc1)OCc1ccccc1 [Compound 94, 1,6-di-O-cinnamyl-2,5-di-O-benzyl-D-mannitol] | > 1 | 
21 | O[C@@H]([C@H](O)[C@@H](COCc1ccccc1)OCc1cccs1)[C@@H](COCc1ccccc1)OCc1ccc(F)cc1 [Compound 96, 1,6-di-O-benzyl-2-O-(4-fluorobenzyl)-5-O-(2-thienylmethyl)-D-mannitol] | 0.23 | 
22 | O[C@@H]([C@H](O)[C@@H](COCc1ccccc1F)OCc1cccs1)[C@@H](COCc1ccccc1F)OCc1ccc(F)cc1 [Compound 97, 1,6-di-O-(2-fluorobenzyl)-2-O-(4-fluorobenzyl)-5-O-(2-thienylmethyl)-D-mannitol] | 0.23 | 
23 | O[C@@H]([C@H](O)[C@@H](COCc1ccccc1)OCc1ccccc1)[C@H](O)COCc1ccccc1 [Compound 98, 1,2,6-tri-O-benzyl-D-mannitol] |  | Ki [1, 5]: 33 µM
24 | O=[N+]([O-])c1ccc(CO[C@H](COCc2ccccc2)[C@@H](O)[C@H](O)[C@H](O)COCc2ccccc2)cc1 [Compound 99, 1,6-di-O-benzyl-2-O-(4-nitrobenzyl)-D-mannitol] |  | Ki [1, 5]: 45 µM
25 | CSC(=S)O[C@H](COCc1ccccc1)[C@@H](O)[C@H](O)[C@@H](COCc1ccccc1)OC(=S)SC [Compound 101, 1,6-di-O-benzyl-2,5-di-O-(methylthiothioxo)-D-mannitol] |  | Ki [1, 5]: > 5 µM
26 | CSC(=S)O[C@H](COCc1ccccc1)[C@@H](O)[C@H](O)[C@@H](COCc1ccccc1)OCc1ccc(F)cc1 [Compound 106, 1,6-di-O-benzyl-2-O-(4-fluorobenzyl)-5-O-(methylthiothioxo)-D-mannitol] |  | Ki [1, 5]: > 5 µM
27 | O=C(O[C@H](COCc1ccccc1)[C@@H](O)[C@H](O)[C@@H](COCc1ccccc1)OC(=O)c1ccccc1)c1ccccc1 [Compound 109, 1,6-di-O-benzyl-2,5-di-O-benzoyl-D-mannitol] |  | Ki [1, 5]: 10 µM
